Reference: patent US20030236399A1, “Method of improving the quality of taste of natural sweetner” (Shangdong Hua Xian Stevia Co., Ltd., priority 2002, published 2003)

Legend:
[1] = Dissolving under ambient temperature, before and after the process; assay type: physicochemical
Description: Comparisons have been made between the natural sweetener before and after the process of the present invention and the results are illustrated as follow: […]

[2] = background statement; cited from earlier work
[3] = high temperature, high acidity and high alkalinity; cited from earlier work

Molecule | Solubility under ambient temperature ([1]; Sweetness equivalent to 15% sucrose solution) | Sweetness level relative to sucrose [2] | Solubility under ambient temperature ([1]; Sweetness equivalent to 5% sucrose solution) | Solubility under ambient temperature ([1]; Sweetness equivalent to 10% sucrose solution) | Stability of structure [3]
α-glycosyl stevioside | taste, easy to dissolve under |  |  |  | 
C=C1C[C@@]23CC[C@H]4[C@@](C)(CCC[C@@]4(C)C(=O)O[C@@H]4O[C@H](CO)[C@@H](O)[C@H](O)[C@H]4O)[C@@H]2CC[C@]1(O[C@@H]1O[C@H](CO)[C@@H](O)[C@H](O)[C@H]1O[C@@H]1O[C@H](CO)[C@@H](O)[C@H](O)[C@H]1O)C3 [stevioside] |  | 200-300 times higher than that of sucrose | insoluble under ambient | insoluble under ambient | stable in structure
